Like-named read-outs stand apart in the source and are kept apart here. One block for each molecule: values may come before it.
Columns and labels:
Format in all cases: cell-based
[1] = tested on: PEER cells / γδ T cells; assay: TNF-α production from γδ T cells stimulated by compound-pretreated PEER cells; details: T cell acute lymphocytic leukemia, 4 hr pretreatment, 16 hr with γδ T cells, read-out: TNF-α50
Procedure: (§1) Since the above-mentioned results of Experimental Example confirm that the activity of bisphosphonic acids becomes high by POM esterification in various tumor cells, the TNF-α production induction ability of more number of tumor cells was quantitatively studied. […] Thereto was added a solution (500 μl) of compound 7 obtained by serially diluting 10 mM stock solution 10-fold from 20 μM, or a solution (500 μl) of compound 14 obtained by serially diluting 10 mM stock solution 10-fold from 200 μM, and the cells were suspended well. These conical tubes were stood at 37° C. for 4 hr, and the cells were washed 3 times with 5 ml of culture medium. To these cells was added 500 μl of medium, and the cells were suspended well. […] The cell culture medium was suspended well, and the plate was centrifuged at 1,700 rpm, 4° C. for 2 min and the culture supernatant (150 μl) was taken and placed in another round-bottomed 96 well plate. The plate was frozen at −80° C. overnight, left standing at room temperature for 1 hr, stirred well and 100 μl thereof was subjected to ELISA of TNF-α. The content of TNF-α was calculated from the analytical curve of TNF-α. These were performed in triplicate, and TNF-α50 of bisphosphonic acid POM ester derivative (compound 7) and bisphosphonic acid (compound 14) was calculated and summarized in Table 8.

[2] = tested on: LK-2 cells / γδ T cells; assay: TNF-α production from γδ T cells stimulated by compound-pretreated LK-2 cells; details: LK-2, Lung cancer, 4 hr pretreatment, 16 hr with γδ T cells, read-out: TNF-α50
Procedure: as §1

[3] = tested on: EJ-1 cells; assay: EJ-1 cell growth inhibition (direct antitumor action, CellTiterGlo); details: for IC50: EJ-1 (bladder cancer) growth inhibition, 4 days culture
Summary of the method: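 EJ-1 cells run as in the earlier U937 protocol, with cells recovered by conventional EDTA-trypsin treatment. POM ester derivatives were tested side by side with the parent bisphosphonic acids for direct growth inhibition, read by CellTiterGlo.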

[4] = tested on: RAMOS-RA1 cells / γδ T cells; assay: TNF-α production from γδ T cells stimulated by compound-pretreated RAMOS-RA1 cells; details: RAMOS-RA1, Burkitt's lymphoma, 4 hr pretreatment, 16 hr with γδ T cells, read-out: TNF-α50
Procedure: as §1

[5] = tested on: G-361 cells; assay: G-361 tumor cell growth inhibition (CellTiterGlo); details: G-361, Melanoma, 4 days culture
Procedure: (§2) First, EJ-1, 786-0, MKN1, OST, PC-3, PK-1, LK-2, G-361, TFK-1, MRK-nu-1 were cultured in RPMI1640 medium supplemented with 10% calf serum at 37° C. under 5% CO2 atmosphere while maintaining log phase. The cells were recovered by a conventional EDTA trypsin treatment, and centrifuged at 1,700 rpm, 4° C. for 5 min. The supernatant was removed, and suspended in RPMI1640 medium supplemented with 10% calf serum to 500 cells/50 μl. On the other hand, 10 mM stock solution of compound 7 which is a bisphosphonic acid POM ester derivative was serially diluted 2-fold from 200 pM. In addition, 10 mM stock solution of compound 14 which is bisphosphonic acid was serially diluted 2-fold from 2 mM. Then, the cell suspension (50 μl, 500 cells) and the compound solution (50 μl) were added to a flat-bottomed 96 well plate and cultured at 37° C. under 5% CO2 atmosphere for 4 days. Then, 100 μl of CellTiterGlo solution was added, and the mixture was pipetted 10 strokes, and transferred to a 96 well OptiPlate. After standing at room temperature for 10 min, the luminescence was measured by a luminometer and IC50 value was calculated.

[6] = tested on: U937 cells / γδ T cells; assay: TNF-α production from γδ T cells stimulated by compound-pretreated U937 cells; details: U937, Histiocytic lymphoma, 4 hr pretreatment, 16 hr with γδ T cells, read-out: TNF-α50
Procedure: as §1

[7] = tested on: MKN1 cells; assay: MKN1 tumor cell growth inhibition (CellTiterGlo); details: MKN1, Gastric cancer, 4 days culture
Procedure: as §2

[8] = tested on: PC-3 cells / γδ T cells; assay: TNF-α production from γδ T cells stimulated by compound-pretreated PC-3 cells; details: PC-3, Prostate cancer, 4 hr pretreatment, 16 hr with γδ T cells, read-out: TNF-α50
Procedure: as §1

[9] = tested on: YMB-1-E cells / γδ T cells; assay: TNF-α production from γδ T cells stimulated by compound-pretreated YMB-1-E cells; details: Mammary carcinoma, 4 hr pretreatment, 16 hr with γδ T cells, read-out: TNF-α50
Procedure: as §1

[10] = tested on: TFK-1 cells / γδ T cells; assay: TNF-α production from γδ T cells stimulated by compound-pretreated TFK-1 cells; details: TFK-1, Cholangiocarcinoma, 4 hr pretreatment, 16 hr with γδ T cells, read-out: TNF-α50
Procedure: as §1

[11] = tested on: MRK-nu-1 cells; assay: MRK-nu-1 tumor cell growth inhibition (CellTiterGlo); details: MRK-nu-1, Mammary carcinoma, 4 days culture
Procedure: as §2

[12] = tested on: PC-3 cells; assay: PC-3 tumor cell growth inhibition (CellTiterGlo); details: PC-3, Prostate cancer, 4 days culture
Procedure: as §2

[13] = tested on: 786-0 cells; assay: 786-0 tumor cell growth inhibition (CellTiterGlo); details: 786-0, Renal cell carcinoma, 4 days culture
Procedure: as §2

[14] = tested on: HMC-1-8 cells / γδ T cells; assay: TNF-α production from γδ T cells stimulated by compound-pretreated HMC-1-8 cells; details: HMC-1-8, Mammary carcinoma, 4 hr pretreatment, 16 hr with γδ T cells, read-out: TNF-α50
Procedure: as §1

[15] = tested on: SCC-3 cells / γδ T cells; assay: TNF-α production from γδ T cells stimulated by compound-pretreated SCC-3 cells; details: SCC-3, Non-Hodgkin's lymphoma, 4 hr pretreatment, 16 hr with γδ T cells, read-out: TNF-α50
Procedure: as §1

[16] = tested on: OST cells; assay: OST tumor cell growth inhibition (CellTiterGlo); details: Osteosarcoma, 4 days culture
Procedure: as §2

[17] = tested on: THP-1 cells; assay: THP-1 tumor cell growth inhibition (CellTiterGlo); details: THP-1, Acute monocytic leukemia, 4 days culture
Procedure: (§3) To quantitatively study an action of compound 7, which is a bisphosphonic acid POM ester derivative, on various hematologic tumor-derived lymphoma and myeloidic leukemia cells, the concentration of a compound that inhibits cell proliferation to half was calculated as IC50, and a direct antitumor effect was studied from the value thereof. […] First, MOLT-4, THP-1, SCC-3, PEER, RAMOS-RA1, C1R, MOLT-3, Raji, U937, K562, Daudi were cultured in RPMI1640 medium supplemented with 10% calf serum at 37° C. under 5% CO2 atmosphere while maintaining log phase. The cells were recovered, and centrifuged at 1,700 rpm, 4° C. for 5 min. The supernatant was removed, and suspended in RPMI1640 medium supplemented with 10% calf serum to 500 cells/50 μl. On the other hand, 10 mM stock solution of compound 7 which is a bisphosphonic acid POM ester derivative was serially diluted 2-fold from 200 μM. In addition, 10 mM stock solution of compound 14 which is bisphosphonic acid was serially diluted 2-fold from 2 mM. Then, the cell suspension (50 μl, 500 cells) and the compound solution (50 μl) were added to a flat-bottomed 96 well plate and cultured at 37° C. under 5% CO2 atmosphere for 4 days. Then, 100 μl of CellTiterGlo solution was added, and the mixture was pipetted 10 strokes, and transferred to a 96 well OptiPlate. […]

[18] = tested on: SCC-3 cells; assay: SCC-3 tumor cell growth inhibition (CellTiterGlo); details: SCC-3, Non-Hodgkin's lymphoma, 4 days culture
Procedure: as §3

[19] = tested on: PK1 cells / γδ T cells; assay: TNF-α production from γδ T cells stimulated by compound-pretreated PK1 cells; details: PK1, Pancreatic cancer, 4 hr pretreatment, 16 hr with γδ T cells, read-out: TNF-α50
Procedure: as §1

[20] = tested on: RAMOS-RA1 cells; assay: RAMOS-RA1 tumor cell growth inhibition (CellTiterGlo); details: PAMOS-RA1 (so in the source), Burkitt's lymphoma, 4 days culture
Procedure: as §3

[21] = tested on: MRK-nu-1 cells / γδ T cells; assay: TNF-α production from γδ T cells stimulated by compound-pretreated MRK-nu-1 cells; details: MRK-nu-1, Mammary carcinoma, 4 hr pretreatment, 16 hr with γδ T cells, read-out: TNF-α50
Procedure: as §1

[22] = tested on: K562 cells / γδ T cells; assay: TNF-α production from γδ T cells stimulated by compound-pretreated K562 cells; details: K562, Erythrocytoma, 4 hr pretreatment, 16 hr with γδ T cells, read-out: TNF-α50
Procedure: as §1

- EC50 [1]: > 100000 nM
- EC50 ([2]; Homo sapiens): > 100000 nM
- IC50 ([3]; EJ1, 96 h): 3700 nM
- EC50 ([4]; T-cell): > 100000 nM
- IC50 ([5]; Homo sapiens, 96 h): 20000 nM
- EC50 ([6]; Homo sapiens, U-937): > 100000 nM
- IC50 ([7]; Homo sapiens, MKN-1, 96 h): 100000 nM
- EC50 ([8]; Homo sapiens): 77000 nM
- EC50 ([9]; Homo sapiens): > 100000 nM
- EC50 ([10]; T-cell): > 100000 nM
- IC50 ([11]; Homo sapiens, 96 h): 210000 nM
- IC50 ([12]; Homo sapiens, 96 h): 100000 nM
- IC50 ([13]; Homo sapiens, 96 h): 25000 nM
- EC50 ([14]; T-cell): > 100000 nM
- EC50 ([15]; Homo sapiens): > 100000 nM
- IC50 ([16]; 96 h): 66000 nM
- IC50 ([17]; Homo sapiens, 96 h): 130000 nM
- IC50 ([18]; Homo sapiens, 96 h): 66000 nM
- EC50 ([19]; PK-1): > 100000 nM
- IC50 ([20]; 96 h): 75000 nM
- EC50 ([21]; Homo sapiens): > 100000 nM
- EC50 ([22]; Homo sapiens): > 100000 nM
SMILES: O=P(O)(O)C(CNc1nccs1)P(=O)(O)O [Compound 14, 2-(thiazol-2-ylamino)ethylidene-1,1-bisphosphonic Acid, reference compound]

SMILES: CC(C)(C)C(=O)OCOP(=O)(OCOC(=O)C(C)(C)C)C(CNc1nccs1)P(=O)(OCOC(=O)C(C)(C)C)OCOC(=O)C(C)(C)C [Compound 7, tetrakispivaloyloxymethyl 2-(thiazol-2-ylamino) ethylidene-1,1-bisphosphonate]
- EC50 [1]: 83 nM
- EC50 [2]: 97 nM
- IC50 [3]: 26 nM
- direct antitumor activity (in words) ([3]; EJ-1 growth inhibition): particularly high activity
- EC50 [4]: 140 nM
- IC50 [5]: 120 nM
- EC50 [6]: 60 nM
- IC50 [7]: 1200 nM
- EC50 [8]: 65 nM
- EC50 [9]: 630 nM
- EC50 [10]: 66 nM
- IC50 [11]: 740 nM
- IC50 [12]: 220 nM
- IC50 [13]: 880 nM
- EC50 [14]: 920 nM
- EC50 [15]: 81 nM
- IC50 [16]: 810 nM
- IC50 [17]: 35 nM
- IC50 [18]: 180 nM
- EC50 [19]: 450 nM
- IC50 [20]: 110 nM
- EC50 [21]: 180 nM
- EC50 [22]: 80 nM

Source: US10532065B2, “Bisphosphonic acid derivative and application for same” (NAGASAKI UNIVERSITY, priority 2014, dated 2020)
